In PMC12621569 (Antiviral research, 2025):

Experiments:
[1] = tested on: B/Victoria neuraminidase (NA); format: biochemical, influenza B/Victoria lineage virus
[2] = molecular target: A (H1N1)pdm09 neuraminidase (NA); format: biochemical, influenza A (H1N1)pdm09 virus
type A viruses = settings: cited from earlier work
A(H1N1)pdm09 viruses = format: cell-based, influenza A(H1N1)pdm09 virus
A(H3N2) viruses = format: cell-based, influenza A(H3N2) virus
influenza A viruses = format: cell-based, influenza A virus

SMILES	effect of substitution on inhibition of NA activity [1]	IC50 fold vs NA sequence-matched virus [1] [fold]	IC50 Fold [2] [fold]	elevated baloxavir EC50 in cell culture (type A viruses)	variably elevated baloxavir EC50 (type A viruses)	effect on baloxavir susceptibility (A(H1N1)pdm09 viruses)	effect on baloxavir susceptibility (A(H3N2) viruses)	change in EC50 (influenza A viruses)
CCOC(=O)C1=C[C@@H](OC(CC)CC)[C@H](NC(C)=O)[C@@H](N)C1 [Oseltamivir, oseltamivir]	improving the ability	–	–	–	–	–	–	–
CCC(CC)[C@H](NC(C)=O)[C@@H]1[C@H](O)[C@@H](C(=O)O)C[C@H]1N=C(N)N [Peramivir, peramivir]	improving the ability	14	301	–	–	–	–	–
O=C1c2c(O)c(=O)ccn2N([C@@H]2c3ccccc3SCc3c2ccc(F)c3F)[C@@H]2COCCN12 [Baloxavir, baloxavir]	–	–	–	• Primary treatment-emergent; associated with diminished virologic response in clinical settings • Rarely as natural polymorphism • Confers elevated baloxavir EC50 in cell culture (11–614-fold)	• Most are natural polymorphisms • Some emerged post baloxavir exposure or introduced for assessment • Confer variably elevated baloxavir EC50 (<3–19 fold)	no effect	no effect	• Natural polymorphism • No or little change in EC50 (<3-fold)
